Results reported in ChEMBL document CHEMBL1201862, “PubChem BioAssay data set” (2004).
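Growth conditions: 96-well plates. Treatment: test compound, 48 hours, 5 concentrations. Analysis: linear interpolation between bracketing concentrations; unreached endpoints set to highest concentration. Here, GI50 denotes the concentration required for 50% inhibition of growth.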 The source made the active and inactive calls. No stated cut-off is given here; in the data, active = GI50 up to about 1.1 µM and inactive = higher.

Columns and labels:
Assay in all cases: NCI-60 cell line screen, 48 h
SF-295 = system: SF-295
ACHN = system: ACHN
IGROV-1 = system: IGROV-1
OVCAR-3 = system: OVCAR-3
NCI-H226 = system: NCI-H226
DU-145 = system: DU-145
U-251 = system: U-251
HCT-116 = system: HCT-116
MDA-MB-231 = system: MDA-MB-231
NCI-H522 = system: NCI-H522
PC-3 = system: PC-3
HT-29 = system: HT-29
UO-31 = system: UO-31
SR = system: SR
RXF 393 = system: RXF 393
SN12C = system: SN12C
A549 = system: A549
EKVX = system: EKVX
TK-10 = system: TK-10
DMS-273 = system: DMS-273

Structure (SMILES) | GI50 (SF-295) | GI50 (ACHN) | GI50 (IGROV-1) | GI50 (OVCAR-3) | GI50 (NCI-H226) | GI50 (DU-145) | GI50 (U-251) | GI50 (HCT-116) | GI50 (MDA-MB-231) | GI50 (NCI-H522) | GI50 (PC-3) | GI50 (HT-29) | GI50 (UO-31) | GI50 (SR) | GI50 (RXF 393) | GI50 (SN12C) | GI50 (A549) | GI50 (EKVX) | GI50 (TK-10) | GI50 (DMS-273)
c1ccc2c(c1)cc1ccc3cccc4ccc2c1c34 | > 100 µM (inactive) | > 100 µM (inactive) | > 100 µM (inactive) | > 100 µM (inactive) | > 100 µM (inactive) | > 100 µM (inactive) | > 100 µM (inactive) | > 100 µM (inactive) | > 100 µM (inactive) | > 100 µM (inactive) | > 100 µM (inactive) | > 100 µM (inactive) | > 100 µM (inactive) | > 100 µM (inactive) | > 100 µM (inactive) | > 100 µM (inactive) | > 100 µM (inactive) | 9.04 µM (inactive) | > 100 µM (inactive) | –
COc1ccc2nc3cc(Cl)ccc3c(NCCNC(=O)Cn3c(=O)n(C)c(=O)c4c3nc3c(c(=O)n(C)c(=O)n3C)[n+]4[O-])c2c1 | 44.8 µM (inactive) | 36.8 µM (inactive) | 19.1 µM (inactive) | 39.5 µM (inactive) | 35.6 µM (inactive) | > 84.3 µM (inactive) | 21 µM (inactive) | 35.2 µM (inactive) | 50.7 µM (inactive) | 25.4 µM (inactive) | 38.4 µM (inactive) | 24.2 µM (inactive) | > 100 µM (inactive) | 18.5 µM (inactive) | 42.1 µM (inactive) | 36.7 µM (inactive) | 71.8 µM (inactive) | 34.7 µM (inactive) | 29 µM (inactive) | –
CC(C)(C)c1cc(OCc2nnc3sc(-c4ccc(Cl)cc4)nn23)c(Cl)cc1OCc1nnc2sc(-c3ccc(Cl)cc3)nn12 | 3.3 µM (inactive) | 5.4 µM (inactive) | 3.82 µM (inactive) | 2.47 µM (inactive) | 17.3 µM (inactive) | 4.19 µM (inactive) | 5.79 µM (inactive) | 3.54 µM (inactive) | 8.15 µM (inactive) | 0.564 µM (active) | 4.62 µM (inactive) | 30.8 µM (inactive) | 10.3 µM (inactive) | 0.315 µM (active) | 2.81 µM (inactive) | 10.2 µM (inactive) | 4.21 µM (inactive) | 13.1 µM (inactive) | 8.47 µM (inactive) | –
Oc1c(CN2CCCC2)ccc2cccnc12 | 13 µM (inactive) | 3.55 µM (inactive) | 18.8 µM (inactive) | 23.9 µM (inactive) | 21.5 µM (inactive) | 23.2 µM (inactive) | 16.2 µM (inactive) | 14.1 µM (inactive) | 51.3 µM (inactive) | 27.6 µM (inactive) | > 39.5 µM (inactive) | 27.5 µM (inactive) | 3.44 µM (inactive) | 12.2 µM (inactive) | > 67.9 µM (inactive) | 19.3 µM (inactive) | 22.6 µM (inactive) | 12.3 µM (inactive) | 12.4 µM (inactive) | –
O=C(Nc1nnc(-c2ccc(Cl)cc2)o1)C(SC(=S)N1CCOCC1)c1ccccc1 (stereo unspecified) | 13.1 µM (inactive) | 12.4 µM (inactive) | 19.6 µM (inactive) | 9.38 µM (inactive) | 21.9 µM (inactive) | 23.7 µM (inactive) | 12.5 µM (inactive) | 10.2 µM (inactive) | 30.3 µM (inactive) | 16.3 µM (inactive) | 13.6 µM (inactive) | 18.8 µM (inactive) | 4.97 µM (inactive) | 8.09 µM (inactive) | 26.9 µM (inactive) | 8.22 µM (inactive) | 13.8 µM (inactive) | 14.6 µM (inactive) | 44.3 µM (inactive) | –
CC(=O)Nc1sc(Br)cc1S(=O)(=O)c1ccc(Cl)cc1 | 31.2 µM (inactive) | 34 µM (inactive) | 44.4 µM (inactive) | 20.5 µM (inactive) | 19.1 µM (inactive) | 46.6 µM (inactive) | 34.8 µM (inactive) | 26.1 µM (inactive) | > 100 µM (inactive) | 19.3 µM (inactive) | 17.9 µM (inactive) | 16.9 µM (inactive) | 22.5 µM (inactive) | 14.6 µM (inactive) | 20 µM (inactive) | 71.9 µM (inactive) | 29.2 µM (inactive) | 37.2 µM (inactive) | 46.7 µM (inactive) | –
CC1=Nn2c(nnc2-c2ccc(N)cc2)NC(C)(C)C1 | > 100 µM (inactive) | > 100 µM (inactive) | > 100 µM (inactive) | > 100 µM (inactive) | > 100 µM (inactive) | – | > 100 µM (inactive) | – | – | > 100 µM (inactive) | – | > 100 µM (inactive) | > 100 µM (inactive) | – | – | – | > 100 µM (inactive) | > 100 µM (inactive) | > 100 µM (inactive) | > 100 µM (inactive)
COc1ccc(O)c2c1C(=O)CCCC2=O | > 100 µM (inactive) | > 100 µM (inactive) | > 100 µM (inactive) | > 100 µM (inactive) | – | – | > 100 µM (inactive) | > 100 µM (inactive) | – | > 100 µM (inactive) | – | > 100 µM (inactive) | > 100 µM (inactive) | – | – | > 100 µM (inactive) | > 100 µM (inactive) | 40.1 µM (inactive) | > 100 µM (inactive) | > 100 µM (inactive)
